Measured values from US4594329A, “CRF analogs” (The Salk Institute for Biological Studies, priority 1984, dated 1986).
Square brackets hold non-standard residues; d marks the D form. Peptide text beside a SMILES is read from it. * marks the point of attachment. hArg = N=C(N)NCCCC[C@H](N)C(=O)O; Nle = CCCC[C@H](N)C(=O)O; Orn = NCCC[C@H](N)C(=O)O; Bz = O=C(c1ccccc1)*

Key:
[1] = system: cultured rat pituitary cells; experiment: secretion of ACTH and β-endorphin by cultured rat pituitary cells; assay type: cell-based
Description: (§1) The synthetic peptide AHC and oCRF were examined for their effects on the secretion of ACTH and β-endorphin in vitro and was also in vivo. The potency of synthetic oCRF to stimulate the secretion of ACTH and β-endorphin by cultured rat pituitary cells was measured using the procedure as generally set forth in Endocrinology, 91, 562 (1972). […] In vivo testing is carried out using the general procedure set forth in C. Rivier et al., Science, 218, 377 (1982).

[2] = lowering of blood pressure, in vivo testing; details: general procedure of Example III
Description: as §1

[3] = general procedure of Example III

| Compound | stimulates the secretion of ACTH and β-END-LI [1, 3] | lowering of blood pressure [2] | secretion of ACTH and β-END-LI, amount relative to oCRF ([1]; % of oCRF, general procedure of Example III) | secretion of ACTH and β-END-LI compared with oCRF ([1]; comparison with oCRF) |
| --- | --- | --- | --- | --- |
| CCCC[C@H](NC(=O)[C@@H](NC(=O)[C@H](CC(C)C)NC(=O)[C@H](CC(=O)O)NC(=O)[C@H](CC(C)C)NC(=O)[C@H](CO)NC(=O)[C@@H](NC(=O)[C@@H]1CCCN1C(=O)[C@@H]1CCCN1C(=O)[C@H](CCC(=O)O)NC(=O)CNC(=O)c1ccccc1)[C@@H](C)CC)[C@@H](C)O)C(=O)N[C@@H](Cc1c[nH]cn1)C(=O)N[C@@H](CC(C)C)C(=O)N[C@@H](CC(C)C)C(=O)N[C@@H](CCCNC(=N)N)C(=O)N[C@@H](CCC(=O)O)C(=O)N[C@H](C(=O)N[C@@H](CC(C)C)C(=O)N[C@@H](CCC(=O)O)C(=O)N[C@@H](CCSC)C(=O)N[C@@H](C)C(=O)N[C@@H](CCCNC(=N)N)C(=O)N[C@@H](C)C(=O)N[C@@H](CCC(=O)O)C(=O)N[C@@H](CCC(N)=O)C(=O)N[C@@H](CC(C)C)C(=O)N[C@@H](C)C(=O)N[C@@H](CCC(=O)O)C(=O)N[C@@H](CCC(N)=O)C(=O)N[C@@H](C)C(=O)N[C@@H](Cc1c[nH]cn1)C(=O)N[C@@H](CO)C(=O)N[C@@H](CC(N)=O)C(=O)N[C@@H](CCCNC(=N)N)C(=O)N[C@@H](CCCNC(=N)N)C(=O)N[C@@H](CC(C)C)C(=O)N[C@@H](CCSC)C(=O)N[C@@H](CCC(=O)O)C(=O)N[C@H](C(=O)N[C@H](C(N)=O)[C@@H](C)CC)[C@@H](C)CC)C(C)C (Bz-GEPPISLDLT[Nle]HLLREVLEMARAEQLAEQAHSNRRLMEII-NH2) | stimulates the secretion of ACTH and β-END-LI | very significant lowering of blood pressure |  |  |
| CC[C@H](C)[C@H](NC(=O)[C@@H]1CCCN1C(=O)[C@@H]1CCCN1)C(=O)N[C@@H](CO)C(=O)N[C@@H](CC(C)C)C(=O)N[C@@H](CC(=O)O)C(=O)N[C@@H](CC(C)C)C(=O)N[C@H](C(=O)N[C@@H](CC(C)C)C(=O)N[C@@H](Cc1c[nH]cn1)C(=O)N[C@@H](CC(C)C)C(=O)N[C@@H](CC(C)C)C(=O)N[C@@H](CCCNC(=N)N)C(=O)N[C@@H](CCC(=O)O)C(=O)N[C@@H](CCSC)C(=O)N[C@@H](CC(C)C)C(=O)N[C@@H](CCC(=O)O)C(=O)N[C@@H](CCSC)C(=O)N[C@@H](CCC(=O)O)C(=O)N[C@@H](CCCN)C(=O)N[C@@H](C)C(=O)N[C@@H](CCC(=O)O)C(=O)N[C@@H](CCC(N)=O)C(=O)N[C@@H](CCC(=O)O)C(=O)N[C@@H](C)C(=O)N[C@@H](CCC(=O)O)C(=O)N[C@@H](CCC(N)=O)C(=O)N[C@@H](C)C(=O)N[C@@H](C)C(=O)N[C@@H](CC(C)C)C(=O)N[C@@H](CC(N)=O)C(=O)N[C@@H](CCCNC(=N)N)C(=O)N[C@@H](CCCCNC(=N)N)C(=O)N[C@@H](CC(C)C)C(=O)N[C@@H](CC(C)C)C(=O)N[C@@H](CCC(=O)O)C(=O)N[C@@H](CCC(=O)O)C(=O)N[C@@H](C)C(N)=O)[C@@H](C)O (H-PPISLDLTLHLLREMLEME[Orn]AEQEAEQAALNR[hArg]LLEEA-NH2) | stimulates the secretion of ACTH and β-END-LI | very significant lowering of bloood pressure |  |  |
| CCCC[C@H](NC(=O)[C@H](CCC(=O)O)NC(=O)[C@H](CC(C)C)NC(=O)[C@H](CCCC)NC(=O)[C@H](CCC(=O)O)NC(=O)[C@H](CCCNC(=N)N)NC(=O)[C@H](CC(C)C)NC(=O)[C@H](CC(C)C)NC(=O)[C@H](Cc1c[nH]cn1)NC(=O)[C@H](Cc1ccccc1)NC(=O)[C@@H](NC(=O)[C@H](CC(C)C)NC(=O)[C@H](CC(=O)O)NC(=O)[C@H](CC(C)C)NC(=O)[C@H](CO)NC(=O)[C@@H](NC(=O)[C@@H]1CCCN1C(=O)[C@H]1CCCN1)[C@@H](C)CC)[C@@H](C)O)C(=O)N[C@@H](C)C(=O)N[C@@H](CCCCN)C(=O)N[C@@H](C)C(=O)N[C@@H](CCC(=O)O)C(=O)N[C@@H](CCC(N)=O)C(=O)N[C@@H](CCC(=O)O)C(=O)N[C@@H](C)C(=O)N[C@@H](CCC(=O)O)C(=O)N[C@@H](CCC(N)=O)C(=O)N[C@@H](C)C(=O)N[C@@H](C)C(=O)N[C@@H](CC(C)C)C(=O)N[C@@H](CC(N)=O)C(=O)N[C@@H](CCCNC(=N)N)C(=O)N[C@@H](CC(C)C)C(=O)N[C@@H](CC(C)C)C(=O)N[C@@H](CC(C)C)C(=O)N[C@@H](CCC(=O)O)C(=O)N[C@@H](CCC(=O)O)C(=O)N[C@@H](C)C(N)=O [[D-Pro^4, Nle^18,21]-AHC(4-41)] (H-[dP]PISLDLTFHLLRE[Nle]LE[Nle]AKAEQEAEQAALNRLLLEEA-NH2) |  | very significant lowering of blood pressure | about 160% |  |
| CC[C@H](C)[C@H](NC(=O)[C@H](CC(=O)O)NC(=O)[C@H](CC(C)C)NC(=O)[C@H](CC(C)C)NC(=O)[C@H](CCCCN)NC(=O)[C@H](CCCNC(=N)N)NC(=O)[C@H](CC(N)=O)NC(=O)[C@H](CO)NC(=O)[C@H](Cc1c[nH]cn1)NC(=O)[C@H](C)NC(=O)[C@H](CCC(N)=O)NC(=O)[C@H](CCC(N)=O)NC(=O)[C@H](C)NC(=O)[C@H](CC(C)C)NC(=O)[C@H](CCC(N)=O)NC(=O)[C@H](CC(=O)O)NC(=O)[C@H](C)NC(=O)[C@H](CCCCN)NC(=O)[C@H](CC(=O)O)NC(=O)[C@H](CCSC)NC(=O)[C@H](CCC(=O)O)NC(=O)[C@H](CC(C)C)NC(=O)[C@@H](NC(=O)[C@H](CCC(=O)O)NC(=O)[C@H](CCCNC(=N)N)NC(=O)[C@H](CC(C)C)NC(=O)[C@H](CC(C)C)NC(=O)[C@H](Cc1c[nH]cn1)NC(=O)[C@H](Cc1ccccc1)NC(=O)[C@@H](NC(=O)[C@H](CC(C)C)NC(=O)[C@H](CC(=O)O)NC(=O)[C@H](CC(C)C)NC(=O)[C@H](CO)NC(=O)[C@@H](NC(=O)[C@H]1CCCN1)[C@@H](C)CC)[C@@H](C)O)C(C)C)C(=O)N[C@@H](C)C(N)=O [[D-Pro^4,Asp^22]-oCRF(4-41)] (H-[dP]ISLDLTFHLLREVLEMDKADQLAQQAHSNRKLLDIA-NH2) | stimulates the secretion of ACTH and β-END-LI | very significant lowering of blood pressure |  |  |
| CCCC[C@H](NC(=O)[C@H](CCC(=O)O)NC(=O)[C@H](CC(C)C)NC(=O)[C@@H](NC(=O)[C@H](CCC(=O)O)NC(=O)[C@H](CCCNC(=N)N)NC(=O)[C@H](CC(C)C)NC(=O)[C@H](CC(C)C)NC(=O)[C@H](Cc1c[nH]cn1)NC(=O)[C@H](Cc1ccccc1)NC(=O)[C@@H](NC(=O)[C@H](CC(C)C)NC(=O)[C@H](CC(=O)O)NC(=O)[C@H](CC(C)C)NC(=O)[C@H](CO)NC(=O)[C@@H](NC(=O)[C@@H]1CCCN1C(=O)[C@H]1CCCN1)[C@@H](C)CC)[C@@H](C)O)C(C)C)C(=O)N[C@@H](C)C(=O)N[C@@H](CCCNC(=N)N)C(=O)N[C@@H](C)C(=O)N[C@@H](CCC(=O)O)C(=O)N[C@@H](CCC(N)=O)C(=O)N[C@@H](CC(C)C)C(=O)N[C@@H](C)C(=O)N[C@@H](CCC(N)=O)C(=O)N[C@@H](CCC(N)=O)C(=O)N[C@@H](C)C(=O)N[C@@H](Cc1c[nH]cn1)C(=O)N[C@@H](CO)C(=O)N[C@@H](CC(N)=O)C(=O)N[C@@H](CCCNC(=N)N)C(=O)N[C@@H](CCCCN)C(=O)N[C@@H](CC(C)C)C(=O)N[C@@H](CCSC)C(=O)N[C@@H](CCC(=O)O)C(=O)N[C@H](C(=O)N[C@H](C(N)=O)[C@@H](C)CC)[C@@H](C)CC [[D-Pro^4,Nle^21,38]-rCRF(4-41)] (H-[dP]PISLDLTFHLLREVLE[Nle]ARAEQLAQQAHSNRKLMEII-NH2) |  | very significant lowering of blood pressure |  | in an amount greater than oCRF |
